Tests used:
S. aureus FabH = biological target: T1, S. aureus FabH (Staphylococcus aureus, UniProt Q8NXE2); experiment: FabH radiochemical assay, […]-ketoacyl-ACP formed; type: biochemical
T1 sequence (Q8NXE2 1-313): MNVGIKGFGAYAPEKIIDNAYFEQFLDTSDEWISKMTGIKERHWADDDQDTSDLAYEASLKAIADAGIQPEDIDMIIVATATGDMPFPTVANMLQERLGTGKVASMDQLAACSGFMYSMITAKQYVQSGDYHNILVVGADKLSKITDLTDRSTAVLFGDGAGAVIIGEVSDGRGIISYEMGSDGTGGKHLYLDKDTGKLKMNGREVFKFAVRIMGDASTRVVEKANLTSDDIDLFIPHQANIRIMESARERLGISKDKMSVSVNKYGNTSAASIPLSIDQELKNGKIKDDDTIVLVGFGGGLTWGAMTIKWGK

B. subtilis FabH = experiment: as above; type: biochemical, Bacillus subtilis

SMILES: C=C(C(=O)O)[C@@H]1O[C@H]1CCCCC=C(C)CCC[C@H](O)CC [compound 2, conocandin B]
- IC50 (S. aureus FabH): 18.8 ± 2.5 µM
- IC50 (B. subtilis FabH): 53.5 ± 10.4 µM

From paper PMC8465764 (Organic letters, 2021)
